Experimental data published in ChEMBL document CHEMBL5032535, “Design, synthesis and biological evaluation of a novel spiro oxazolidinedione as potent p300/CBP HAT inhibitor for the treatment of ovarian cancer” (Bioorg Med Chem, 2021).
The source made the active and inactive calls. No cut-off for these calls is given here.

Tests used:
A2780 = assay: Antiproliferative activity against human A2780 cells assessed as inhibition of cell proliferation measured after 120 hrs by Cell-titre glo assay; format: functional, cell-based; settings: A2780, 120 h
[1] = Stability in human liver microsomes assessed as intrinsic clearance; format: ADME, Microsome
OVCAR-3 [2] = assay: Antiproliferative activity against human OVCAR-3 cells assessed as inhibition of cell proliferation measured after 120 hrs by Cell-titre glo assay; format: functional, cell-based; settings: OVCAR-3, 120 h
[3] = target: T1, Histone acetyltransferase p300 (Homo sapiens, UniProt Q09472); assay: Inhibition of p300 (unknown origin) preincubated for 15 mins followed by addition of substrate [3H] Ac-CoA and measured after 60 mins by liquid scintillation counting assay
CREB-binding protein = CREB-binding protein (Homo sapiens, UniProt Q92793); assay: Inhibition of CBP (unknown origin) preincubated for 15 mins followed by addition of substrate [3H] Ac-CoA and measured after 60 mins by liquid scintillation counting assay
[4] = Stability in rat liver microsomes assessed as intrinsic clearance; format: ADME, Microsome
[5] = Stability in mouse liver microsomes assessed as intrinsic clearance; format: ADME, Microsome
OVCAR-3 [6] = assay: Antitumour activity against human OVCAR-3 cells xenografted in Balb/c mouse assessed as reduction of tumor volume at 100 mg/kg, ip qd measured every 3 to 4 days for 2 weeks; format: functional, organism-based
[7] = target: CREB-binding protein/Histone acetyltransferase p300 (Homo sapiens) (UniProt Q09472+Q92793); assay: Inhibition of p300/CBP in human OVCAR-3 cells assessed as reduction of C-myc levels at 0.25 uM measured after 2 days by Western blot assay relative to control; format: cell-based; settings: time 2.0 day
[8] = AUC(last) in Sprague-Dawley rat at 3 mg/kg, po; format: ADME, organism-based; parameters: time 0 - last, route oral, dose 3 mg/kg; settings: in vivo
[9] = target: T1, Histone acetyltransferase p300; assay: Inhibition of p300 in human OVCAR-3 cells assessed as reduction of H3K18ac levels measured after 24 hrs by Western blot assay; format: cell-based; settings: dose 0.25-4 µM
OVCAR-3 [10] = assay: Antitumour activity against human OVCAR-3 cells xenografted in Balb/c mouse assessed as reduction of tumor volume at 30 mg/kg, ip qd measured every 3 to 4 days for 2 weeks (reference value: 2838.39 +/- 1392.47 mm3); format: functional
[11] = Tmax in Sprague-Dawley rat at 3 mg/kg, po; format: ADME, organism-based; settings: in vivo
[12] = Toxicity in Balb/c nude mouse xenografted with human OVCAR-3 cells assessed as body weight loss at 30 mg/kg, ip measured after 24 days; format: organism-based; settings: in vivo, 576 h, time 24 day
[13] = target: T1, Histone acetyltransferase p300; assay: Inhibition of p300 in human OVCAR-3 cells assessed as reduction of H3K27ac levels measured after 24 hrs by Western blot assay; format: cell-based; settings: dose 0.25-4 µM
SK-OV-3 = assay: Antiproliferative activity against human SK-OV-3 cells assessed as inhibition of cell proliferation measured after 120 hrs by Cell-titre glo assay; format: functional, cell-based
HEK293 = assay: Antiproliferative activity against human 293 cells assessed as inhibition of cell proliferation measured after 120 hrs by Cell-titre glo assay; format: cell-based; settings: hek293, 120 h
[14] = Cmax in Sprague-Dawley rat at 3 mg/kg, po; format: ADME, organism-based; parameters: route oral, dose 3 mg/kg; settings: in vivo
[15] = Half life in Sprague-Dawley rat at 3 mg/kg, po; format: ADME, organism-based; settings: in vivo
OVCAR-3 [16] = assay: Antitumour activity against human OVCAR-3 cells xenografted in Balb/c mouse assessed as reduction of tumor volume at 20 mg/kg, ip qd measured every 3 to 4 days for 2 weeks; format: functional, organism-based
[17] = target: Histone acetyltransferase KAT2A (Homo sapiens) (UniProt Q92830); assay: Inhibition of GCN5 in human OVCAR-3 cells assessed as reduction of H3K9ac levels at 0.25 to 4 uM after 24 hrs by Western blot assay; format: cell-based; settings: dose 0.25-4 µM
[18] = Toxicity in Balb/c nude mouse xenografted with human OVCAR-3 cells assessed as body weight loss at 20 to 30 mg/kg, ip qd measured every 3 to 4 days for 2 weeks; format: organism-based; settings: in vivo, 336 h, dose 20-30 mg/kg
[19] = target: T1, Histone acetyltransferase p300; assay: Inhibition of p300 (unknown origin)
TOV21G = assay: Antiproliferative activity against human TOV-21G cells assessed as inhibition of cell proliferation measured after 120 hrs by Cell-titre glo assay; format: functional, cell-based

Sequence of CREB-binding protein (Q92793 whole entry): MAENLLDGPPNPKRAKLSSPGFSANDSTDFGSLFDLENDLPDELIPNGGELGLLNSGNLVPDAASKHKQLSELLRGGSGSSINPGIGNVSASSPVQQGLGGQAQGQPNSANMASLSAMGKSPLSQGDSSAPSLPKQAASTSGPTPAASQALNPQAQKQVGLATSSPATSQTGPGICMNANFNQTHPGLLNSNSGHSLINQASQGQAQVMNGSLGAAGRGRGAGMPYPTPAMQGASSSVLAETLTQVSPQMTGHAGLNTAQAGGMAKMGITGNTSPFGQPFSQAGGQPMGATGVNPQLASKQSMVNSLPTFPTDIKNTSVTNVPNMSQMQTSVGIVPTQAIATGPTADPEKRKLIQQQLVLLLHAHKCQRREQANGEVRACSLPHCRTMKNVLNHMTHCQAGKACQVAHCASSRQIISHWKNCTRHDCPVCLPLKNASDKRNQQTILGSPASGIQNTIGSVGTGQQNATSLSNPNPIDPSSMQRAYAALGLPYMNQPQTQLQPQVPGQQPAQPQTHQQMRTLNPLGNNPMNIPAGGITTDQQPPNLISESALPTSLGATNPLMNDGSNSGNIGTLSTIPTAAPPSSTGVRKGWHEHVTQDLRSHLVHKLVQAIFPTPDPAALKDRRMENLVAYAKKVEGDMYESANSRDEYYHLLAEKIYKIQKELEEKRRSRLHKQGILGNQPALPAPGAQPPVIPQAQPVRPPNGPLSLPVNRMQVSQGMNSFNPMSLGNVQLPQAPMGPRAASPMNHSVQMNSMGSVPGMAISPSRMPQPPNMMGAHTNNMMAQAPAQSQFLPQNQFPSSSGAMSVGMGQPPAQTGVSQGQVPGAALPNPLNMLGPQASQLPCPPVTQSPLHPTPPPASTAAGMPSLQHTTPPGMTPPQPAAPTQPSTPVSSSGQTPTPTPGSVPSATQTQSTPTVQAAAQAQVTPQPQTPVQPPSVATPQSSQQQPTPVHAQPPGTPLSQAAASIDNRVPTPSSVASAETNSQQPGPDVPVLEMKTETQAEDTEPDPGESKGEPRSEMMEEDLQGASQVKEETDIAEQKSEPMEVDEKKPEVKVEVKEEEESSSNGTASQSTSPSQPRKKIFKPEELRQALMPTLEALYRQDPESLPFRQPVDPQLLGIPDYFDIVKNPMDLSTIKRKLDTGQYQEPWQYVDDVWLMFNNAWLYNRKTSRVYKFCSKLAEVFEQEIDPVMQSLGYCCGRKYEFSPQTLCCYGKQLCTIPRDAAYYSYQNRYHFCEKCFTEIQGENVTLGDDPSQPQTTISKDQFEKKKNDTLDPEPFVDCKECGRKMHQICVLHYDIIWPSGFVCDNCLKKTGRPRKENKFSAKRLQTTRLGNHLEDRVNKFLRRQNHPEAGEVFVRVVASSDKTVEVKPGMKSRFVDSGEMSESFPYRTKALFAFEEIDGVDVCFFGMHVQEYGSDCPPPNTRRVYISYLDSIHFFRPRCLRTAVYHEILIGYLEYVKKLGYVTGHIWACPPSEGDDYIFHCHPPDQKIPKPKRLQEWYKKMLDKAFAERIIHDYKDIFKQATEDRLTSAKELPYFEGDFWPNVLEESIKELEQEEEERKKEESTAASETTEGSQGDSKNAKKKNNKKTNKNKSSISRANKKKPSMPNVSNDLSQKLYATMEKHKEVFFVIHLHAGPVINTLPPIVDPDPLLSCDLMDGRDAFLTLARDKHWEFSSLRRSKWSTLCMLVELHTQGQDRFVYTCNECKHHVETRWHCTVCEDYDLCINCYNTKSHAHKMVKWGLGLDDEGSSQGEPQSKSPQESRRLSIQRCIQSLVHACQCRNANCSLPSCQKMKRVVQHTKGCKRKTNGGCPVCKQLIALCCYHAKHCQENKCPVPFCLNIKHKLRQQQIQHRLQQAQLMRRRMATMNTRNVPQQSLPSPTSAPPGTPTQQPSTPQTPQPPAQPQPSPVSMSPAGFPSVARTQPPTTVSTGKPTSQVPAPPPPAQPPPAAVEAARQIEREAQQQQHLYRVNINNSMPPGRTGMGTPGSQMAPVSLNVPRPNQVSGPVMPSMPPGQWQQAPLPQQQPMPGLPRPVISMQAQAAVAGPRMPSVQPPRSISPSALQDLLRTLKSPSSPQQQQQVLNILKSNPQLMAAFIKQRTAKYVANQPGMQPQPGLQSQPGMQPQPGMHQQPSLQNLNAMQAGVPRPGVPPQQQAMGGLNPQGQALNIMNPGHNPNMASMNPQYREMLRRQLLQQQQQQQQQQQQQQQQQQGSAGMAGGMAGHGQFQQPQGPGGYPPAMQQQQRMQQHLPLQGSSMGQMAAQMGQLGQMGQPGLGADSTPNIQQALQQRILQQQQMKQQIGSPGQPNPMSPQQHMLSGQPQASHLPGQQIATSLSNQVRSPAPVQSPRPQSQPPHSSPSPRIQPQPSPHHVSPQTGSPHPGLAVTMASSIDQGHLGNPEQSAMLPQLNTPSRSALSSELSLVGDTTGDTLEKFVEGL
T1 sequence (Q09472 whole entry): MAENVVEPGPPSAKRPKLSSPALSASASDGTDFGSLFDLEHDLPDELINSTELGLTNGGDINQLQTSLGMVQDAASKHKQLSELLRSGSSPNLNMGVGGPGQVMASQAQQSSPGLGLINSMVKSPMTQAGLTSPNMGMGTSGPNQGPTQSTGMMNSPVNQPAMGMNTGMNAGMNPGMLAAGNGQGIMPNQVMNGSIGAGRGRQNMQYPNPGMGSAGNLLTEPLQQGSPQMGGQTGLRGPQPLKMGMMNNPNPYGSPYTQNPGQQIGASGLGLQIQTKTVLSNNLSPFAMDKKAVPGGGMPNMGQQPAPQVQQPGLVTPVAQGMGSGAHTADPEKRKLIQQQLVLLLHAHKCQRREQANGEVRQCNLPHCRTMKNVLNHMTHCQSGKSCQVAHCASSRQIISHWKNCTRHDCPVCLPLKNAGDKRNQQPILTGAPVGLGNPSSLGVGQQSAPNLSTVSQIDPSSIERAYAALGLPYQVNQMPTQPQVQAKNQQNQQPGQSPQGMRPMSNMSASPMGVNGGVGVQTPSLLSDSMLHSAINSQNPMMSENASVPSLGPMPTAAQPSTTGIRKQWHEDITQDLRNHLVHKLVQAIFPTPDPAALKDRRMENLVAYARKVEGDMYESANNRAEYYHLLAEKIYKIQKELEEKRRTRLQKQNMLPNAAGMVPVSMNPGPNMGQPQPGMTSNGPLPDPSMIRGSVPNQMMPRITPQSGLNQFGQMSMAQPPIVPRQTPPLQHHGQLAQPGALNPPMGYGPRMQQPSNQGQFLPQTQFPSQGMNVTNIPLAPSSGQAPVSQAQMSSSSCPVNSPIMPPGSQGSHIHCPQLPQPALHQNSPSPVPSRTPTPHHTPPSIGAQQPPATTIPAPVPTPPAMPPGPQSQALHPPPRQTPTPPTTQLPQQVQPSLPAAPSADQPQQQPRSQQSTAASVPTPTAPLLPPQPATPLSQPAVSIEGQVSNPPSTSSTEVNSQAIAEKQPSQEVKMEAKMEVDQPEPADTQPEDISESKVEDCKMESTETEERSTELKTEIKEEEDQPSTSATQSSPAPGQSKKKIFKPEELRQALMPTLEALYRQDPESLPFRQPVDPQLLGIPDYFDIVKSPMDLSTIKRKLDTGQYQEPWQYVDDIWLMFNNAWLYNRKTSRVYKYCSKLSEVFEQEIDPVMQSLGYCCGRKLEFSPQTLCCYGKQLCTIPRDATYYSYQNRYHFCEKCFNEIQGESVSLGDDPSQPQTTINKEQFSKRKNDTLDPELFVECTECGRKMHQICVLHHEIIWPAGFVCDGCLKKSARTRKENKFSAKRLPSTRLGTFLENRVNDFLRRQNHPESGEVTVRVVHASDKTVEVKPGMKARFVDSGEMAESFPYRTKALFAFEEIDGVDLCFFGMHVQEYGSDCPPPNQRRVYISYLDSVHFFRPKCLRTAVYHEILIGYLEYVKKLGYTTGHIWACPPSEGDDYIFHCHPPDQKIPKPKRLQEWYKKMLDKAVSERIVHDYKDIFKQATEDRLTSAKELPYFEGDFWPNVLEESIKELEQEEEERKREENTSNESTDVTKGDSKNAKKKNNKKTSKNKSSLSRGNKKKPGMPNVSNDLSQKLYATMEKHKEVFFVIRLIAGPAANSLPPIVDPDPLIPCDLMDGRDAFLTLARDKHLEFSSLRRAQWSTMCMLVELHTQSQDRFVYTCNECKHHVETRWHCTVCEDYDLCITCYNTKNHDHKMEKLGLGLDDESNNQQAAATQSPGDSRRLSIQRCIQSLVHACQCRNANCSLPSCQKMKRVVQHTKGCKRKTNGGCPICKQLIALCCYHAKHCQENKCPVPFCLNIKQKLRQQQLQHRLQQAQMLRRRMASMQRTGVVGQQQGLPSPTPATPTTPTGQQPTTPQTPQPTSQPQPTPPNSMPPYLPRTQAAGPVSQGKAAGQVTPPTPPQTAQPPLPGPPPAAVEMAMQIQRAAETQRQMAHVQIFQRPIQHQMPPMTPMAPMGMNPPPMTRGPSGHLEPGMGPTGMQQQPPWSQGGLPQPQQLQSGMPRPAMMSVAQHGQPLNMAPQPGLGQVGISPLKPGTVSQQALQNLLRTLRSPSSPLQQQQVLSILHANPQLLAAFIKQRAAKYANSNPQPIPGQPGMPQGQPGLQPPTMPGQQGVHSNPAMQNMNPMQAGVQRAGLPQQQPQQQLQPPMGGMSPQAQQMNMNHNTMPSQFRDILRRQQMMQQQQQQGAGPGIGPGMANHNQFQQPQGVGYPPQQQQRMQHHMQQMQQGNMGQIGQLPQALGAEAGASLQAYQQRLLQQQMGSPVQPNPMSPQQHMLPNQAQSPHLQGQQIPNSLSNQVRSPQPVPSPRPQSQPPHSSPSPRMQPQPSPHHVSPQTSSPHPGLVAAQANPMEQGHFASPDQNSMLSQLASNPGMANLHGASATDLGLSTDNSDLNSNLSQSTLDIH
Sequence of CREB-binding protein/Histone acetyltransferase p300 (Homo sapiens) (Q09472 whole entry, looked up): as the sequence (Q09472 whole entry) above
Sequence of CREB-binding protein/Histone acetyltransferase p300 (Homo sapiens) (Q92793 whole entry, looked up): as the sequence (Q92793 whole entry) above

Row | SMILES | EC50 (A2780) | EC50 (OVCAR-3 [2]) | IC50 [3] | IC50 (CREB-binding protein) | other results
1 | CNC(=O)Nc1ccc2c(c1)CC[C@@]21OC(=O)N(CC(=O)N(Cc2ccc(F)cc2)[C@@H](C)C(F)(F)F)C1=O [A-485] |  | 5440 nM |  |  | 
2 | CNC(=O)Nc1ccc2c(c1)COC[C@@]21OC(=O)N(CC(=O)N2Cc3cc(F)ccc3OC[C@H]2C2CC2)C1=O |  |  | 12 nM | 51 nM | 
3 | CNC(=O)Nc1ccc2c(c1)CC[C@@]21OC(=O)N(CC(=O)N2Cc3sc(C)c(C)c3OC[C@H]2C(F)(F)F)C1=O |  |  | 430 nM | 680 nM | 
4 | CNC(=O)Nc1ccc2c(c1)CC[C@@]21OC(=O)N(CC(=O)N2Cc3cccnc3CC[C@H]2C2CC2)C1=O |  |  | 10 nM | 44 nM | 
5 | CNC(=O)Nc1ccc2c(c1)CC[C@@]21OC(=O)N(CC(=O)N2Cc3ccncc3CC[C@H]2C2CC2)C1=O |  |  | 9.8 nM | 28 nM | 
6 | CNC(=O)Nc1ccc2c(c1)CCC[C@@]21OC(=O)N(CC(=O)N2Cc3cc(F)ccc3OC[C@H]2C2CC2)C1=O |  |  | 11 nM | 69 nM | 
7 | CNC(=O)Nc1ccc2c(c1)CC[C@@]21OC(=O)N(CC(=O)N2Cc3cnccc3CC[C@H]2C2CC2)C1=O |  |  | 13 nM | 41 nM | 
8 | CNC(=O)Nc1ccc2c(c1)CC[C@@]21OC(=O)N(CC(=O)N2Cc3ncccc3CC[C@H]2C2CC2)C1=O |  |  | 8.6 nM | 30 nM | 
9 | CNC(=O)Nc1ccc2c(c1)OCC[C@@]21OC(=O)N(CC(=O)N2Cc3ccc(F)cc3CC[C@H]2C2CC2)C1=O |  |  | 8.6 nM | 22 nM | 

Now from value to compound, other results behind:

Row | EC50 (A2780) | EC50 (OVCAR-3 [2]) | IC50 [3] | IC50 (CREB-binding protein) | SMILES | other results
10 | 4470 nM | 4300 nM | 1.7 nM | 8.2 nM | CNC(=O)Nc1cc2c(cc1F)[C@@]1(CC2)OC(=O)N(CC(=O)N2Cc3ccc(F)cc3CC[C@H]2C2CC2)C1=O | CLH [1]: 161 mL/min/g; CLH [4]: 94.4 mL/min/g; CLH [5]: 106 mL/min/g
11 | 974 nM | 164 nM | 0.56 nM | 7 nM | CNC(=O)Nc1ccc2c(c1)CC[C@@]21OC(=O)N(CC(=O)N2Cc3cc(F)c(F)cc3CC[C@H]2C2CC2)C1=O | 
12 | 678 nM | 153 nM | 0.49 nM | 7.1 nM | CNC(=O)Nc1ccc2c(c1)CC[C@@]21OC(=O)N(CC(=O)N2Cc3cc(F)ccc3OC[C@H]2C2CC2)C1=O | Activity (OVCAR-3 [6]): Active; inhibition [7]: 50%; AUClast [8]: 480 ng·h/mL; inhibition [9]: Dose-Dependent Effect; CLH [1]: 34.8 mL/min/g; Activity (OVCAR-3 [10]): 1703.74 mm3; Tmax [11]: 1 h; Activity [12]: Toxic; CLH [4]: 66.5 mL/min/g; inhibition [13]: Dose-Dependent Effect; Activity (SK-OV-3): Active; CLH [5]: 48 mL/min/g; Activity (HEK293): Non-Toxic; Cmax [14]: 20.3 ng/mL; t1/2 [15]: 1.4 h; Activity (OVCAR-3 [16]): Active; inhibition [17]: inactive; Activity [18]: Toxic; IC50 [19]: 0.51 nM; Activity (TOV21G): Active
13 |  |  | 4 nM | 12 nM | CNC(=O)Nc1ccc2c(c1)CC[C@@]21OC(=O)N(CC(=O)N2Cc3sccc3OC[C@H]2C2CC2)C1=O | 
14 | 2710 nM | 865 nM | 2.5 nM | 28 nM | CNC(=O)Nc1ccc2c(c1)CC[C@@]21OC(=O)N(CC(=O)N2Cc3ccccc3CC[C@H]2C)C1=O | 
15 |  |  | 2.2 nM | 14 nM | CNC(=O)Nc1ccc2c(c1)CCC[C@@]21OC(=O)N(CC(=O)N2Cc3ccc(F)cc3CC[C@H]2C2CC2)C1=O | 
16 | 471 nM | 90.4 nM | 0.95 nM | 8.1 nM | CNC(=O)Nc1ccc2c(c1)CC[C@@]21OC(=O)N(CC(=O)N2Cc3ccc(F)cc3CC[C@H]2C2CC2)C1=O | CLH [1]: 112 mL/min/g; CLH [4]: 258 mL/min/g; CLH [5]: 150 mL/min/g
